Patent US4407804A, “Analgesic mixture of nalbuphine and indomethacin” (E. I. Du Pont de Nemours and Company, priority 1982, dated 1983)

Tested on: phenyl-p-benzoquinone induced writhing in mice
Test: Mouse antiphenylquinone (phenyl-p-benzoquinone induced) writhing test, oral
Settings: for % mice blocked: 40 min
Procedure: Male CF1 mice obtained from Charles River Breeding Laboratories, fasted for 16-22 hours and weighing 18-22 g at the time of testing are used throughout. All mice are dosed sequentially by the oral route with solutions of indomethacin and/or of nalbuphine hydrochloride. A dosing volume of 10 ml/kg is used for each sequential solution. […] All doses are coded and the test is performed under a code not known to the observer.
A stock solution of indomethacin is prepared by dissolving dry indomethacin powder with an aqueous vehicle containing 2% by volume of Tween 80®, a pharmacological dispersant manufactured by Fisher Scientific Company and containing 100% polysorbate 80. All dosing solutions are prepared by dilution of the stock solution with the 2% Tween 80® vehicle; the vehicle control is 2% Tween 80®. All solutions are prepared fresh daily.
Stock solutions of nalbuphine HCl are prepared by dissolving dry nalbuphine hydrochloride powder with distilled water. All dosing solutions are prepared by dilution of the stock solution with distilled water; the vehicle control is distilled water.
As indicated above, the standard procedure based upon the prevention of phenyl-p-benzoquinone induced writhing in mice is utilized to detect and quantify the analgetic activity of compositions containing nalbuphine and indomethacin.
Mice, intubated with various doses of nalbuphine hydrochloride, indomethacin, combined doses of nalbuphine hydrochloride and indomethacin,or vehicle, are injected intraperitoneally with a standard challenge dose of phenyl-p-benzoquinone 5 minutes prior to the designated observation period. […] For scoring purposes a "writhe" is indicated by whole body stretching or contraction of the abdomen; mice are observed 10 minutes for the presence or absence of writhing beginning 5 minutes after receiving the phenyl-p-benzoquinone dose. Each mouse is used only once, then discarded. […] This dosage as described herein is referred to as the ED50.
In order to study the interaction between nalbuphine and indomethacin, 5 precise dosage ratios of nalbuphine hydrochloride and indomethacin were selected. Four or five coded doses of each selected combination were studied for analgesic effectiveness at 40 minutes using an experimental design which permits coding and complete randomization of the separate dosage forms tested. Altogether 35 separate dosage forms are used and each form is represented in each experimental session. The experiments are continued by running experimental sessions with an equal number of mice per group being tested until the total number, N, of mice tested per group is 60.

COc1ccc2c(c1)c(CC(=O)O)c(C)n2C(=O)c1ccc(Cl)cc1 [Indomethacin, 1-(p-chlorobenzoyl)-5-methoxy-2-methylindole-3-acetic acid]
% mice blocked (indomethacin 0.398 mg/kg, nalbuphine HCl 0): 18.3%
% mice blocked (indomethacin 0.795 mg/kg, nalbuphine HCl 0): 30.0%
% mice blocked (indomethacin 1.59 mg/kg, nalbuphine HCl 0): 78.3%
% mice blocked (indomethacin 3.18 mg/kg, nalbuphine HCl 0): 85.0%
ED50 at 40 min, Indomethacin (amount of indomethacin in the ED50 dose) (mouse, N=60 mice/dose, indomethacin alone or as component of the fixed-ratio combination): 1.08 mg/kg

Oc1ccc2c3c1O[C@H]1[C@@H](O)CC[C@@]4(O)[C@@H](C2)N(CC2CCC2)CC[C@]314 [Nalbuphine, (-)-17-(cyclobutylmethyl)-4,5α-epoxymorphinan-3,6α,14-triol]
% mice blocked (nalbuphine HCl 5.45 mg/kg, indomethacin 0): 10.0%
% mice blocked (nalbuphine HCl 10.9 mg/kg, indomethacin 0): 13.3%
% mice blocked (nalbuphine HCl 21.8 mg/kg, indomethacin 0): 46.7%
% mice blocked (nalbuphine HCl 43.6 mg/kg, indomethacin 0): 66.7%
% mice blocked (nalbuphine HCl 87.2 mg/kg, indomethacin 0): 66.7%
ED50 at 40 min, Nalbuphine HCl (amount of nalbuphine HCl in the ED50 dose) (mouse, N=60 mice/dose, nalbuphine HCl alone or as component of the fixed-ratio combination): 35.5 mg/kg
